The record followed here is ChEMBL document CHEMBL5303573, “Mapping human microbiome drug metabolism by gut bacteria and their genes” (Nature, 2019).

The nature of data set [1]: The drug is tested on Bifidobacterium breve strain: DSM20213 for biotransformation. The drug concentrations were measured before and after a 12-h incubation by liquid-chromatography-coupled mass spectrometry (LC–MS). The following applies: 2 µM.
The nature of data set [2]: The drug is tested on Bacteroides fragilis strain: HMW610 for biotransformation. The drug concentrations were measured before and after a 12-h incubation by liquid-chromatography-coupled mass spectrometry (LC–MS). The following applies: 2 µM.
A short description of data set [3]: The drug is tested on Bacteroides fragilis strain: HMW615 for biotransformation. The drug concentrations were measured before and after a 12-h incubation by liquid-chromatography-coupled mass spectrometry (LC–MS). The conditions noted are these: 2 µM.
A short description of data set [4]: The drug is tested on Bacteroides sp. WH2 strain: WH2 for biotransformation. The drug concentrations were measured before and after a 12-h incubation by liquid-chromatography-coupled mass spectrometry (LC–MS). The following applies: bacteroides sp. wh2, 12 h, 2 µM.
Data set [5] is described as follows: The drug is tested on Bacteroides xylanisolvens strain: DSM18836 for biotransformation. The drug concentrations were measured before and after a 12-h incubation by liquid-chromatography-coupled mass spectrometry (LC–MS). The following applies: 2 µM.
Data set [6] is described as follows: The drug is tested on Blautia luti strain: DSM14534 for biotransformation. The drug concentrations were measured before and after a 12-h incubation by liquid-chromatography-coupled mass spectrometry (LC–MS). The format is ADME. On the set-up: dose 2 uM, timepoint 0 vs 12 hours. The conditions noted are these: 2 µM.
Data set [7] is described as follows: The drug is tested on Clostridium sporogenes strain: ATCC15579 for biotransformation. The drug concentrations were measured before and after a 12-h incubation by liquid-chromatography-coupled mass spectrometry (LC–MS). The following applies: 2 µM.
Data set [8] in a line: The drug is tested on Eubacterium ventriosum strain: ATCC27560 for biotransformation. The drug concentrations were measured before and after a 12-h incubation by liquid-chromatography-coupled mass spectrometry (LC–MS). The format is ADME. On the set-up: dose 2 uM, timepoint 0 vs 12 hours. The conditions noted are these: 2 µM.
Data set [9] in a line: The drug is tested on Ruminococcus gnavus strain: ATCC29149 for biotransformation. The drug concentrations were measured before and after a 12-h incubation by liquid-chromatography-coupled mass spectrometry (LC–MS). The following applies: mediterraneibacter gnavus, 2 µM.
Data set [10] in a line: The drug is tested on Ruminococcus lactaris strain: ATCC29176 for biotransformation. The drug concentrations were measured before and after a 12-h incubation by liquid-chromatography-coupled mass spectrometry (LC–MS). The conditions noted are these: 2 µM.
A short description of data set [11]: The drug is tested on Ruminococcus torques strain: ATCC27756 for biotransformation. The drug concentrations were measured before and after a 12-h incubation by liquid-chromatography-coupled mass spectrometry (LC–MS). The format is ADME. On the set-up: dose 2 uM, timepoint 0 vs 12 hours. The following applies: 2 µM.
Data set [12] can be described thus: The drug is tested on Edwardsiella tarda strain: ATCC23685 for biotransformation. The drug concentrations were measured before and after a 12-h incubation by liquid-chromatography-coupled mass spectrometry (LC–MS). The conditions noted are these: 2 µM.
A short description of data set [13]: The drug is tested on Enterobacter cancerogenus strain: ATCC35316 for biotransformation. The drug concentrations were measured before and after a 12-h incubation by liquid-chromatography-coupled mass spectrometry (LC–MS). The following applies: 2 µM.
For data set [14] the following is noted: bacteroides intestinalis, 12 h, 2 µM.
Description: The drug is tested on Bacteroides intestinalis strain: DSM17393 for biotransformation. The drug concentrations were measured before and after a 12-h incubation by liquid-chromatography-coupled mass spectrometry (LC–MS)
For data set [15] the following is noted: bacteroides thetaiotaomicron, 12 h, 2 µM.
Description: The drug is tested on Bacteroides thetaiotaomicron strain: 3731 for biotransformation. The drug concentrations were measured before and after a 12-h incubation by liquid-chromatography-coupled mass spectrometry (LC–MS)
For data set [16] the following is noted: limosilactobacillus reuteri cf48-3a, 12 h, 2 µM.
Description: The drug is tested on Lactobacillus reuteri CF48-3A strain: BEI HM-102 for biotransformation. The drug concentrations were measured before and after a 12-h incubation by liquid-chromatography-coupled mass spectrometry (LC–MS)
For data set [17] the following is noted: roseburia intestinalis, 12 h, 2 µM.
Description: The drug is tested on Roseburia intestinalis strain: L1-82 for biotransformation. The drug concentrations were measured before and after a 12-h incubation by liquid-chromatography-coupled mass spectrometry (LC–MS)
A short description of data set [18]: The drug is tested on Anaerotruncus colihominis strain: DSM17241 for biotransformation. The drug concentrations were measured before and after a 12-h incubation by liquid-chromatography-coupled mass spectrometry (LC–MS). The conditions noted are these: 2 µM.
Data set [19] in a line: The drug is tested on Clostridium ramosum strain: DSM1402 for biotransformation. The drug concentrations were measured before and after a 12-h incubation by liquid-chromatography-coupled mass spectrometry (LC–MS). The following applies: thomasclavelia ramosa, 2 µM.
Data set [20] is described as follows: The drug is tested on Dorea formicigenerans strain: ATCC27755 for biotransformation. The drug concentrations were measured before and after a 12-h incubation by liquid-chromatography-coupled mass spectrometry (LC–MS). The following applies: 2 µM.

In the case of `Cc1cc2c(cc1S(N)(=O)=O)S(=O)(=O)CCC2`, the “Bacterial Biotransformation” value in data set [1], in data set [2], in data set [3], in data set [4], in data set [5] and in data set [6] was “Compound NOT metabolized” in each case. In addition, the “Bacterial Biotransformation” value in [7], in data set [8], in data set [9], in data set [10], in data set [11] and in data set [12] was “Compound NOT metabolized” each time. The “Bacterial Biotransformation” value in data set [13], in [14], in data set [15], in [16] and in data set [17] was “Compound NOT metabolized” in each case.

Take `Br.COc1ccc2c(c1)[C@]13CCCC[C@@H]1[C@H](C2)N(C)CC3.O` [DEXTROMETHORPHAN HYDROBROMIDE]: the “Bacterial Biotransformation” value in data set [1], in data set [4], in [18], in [6], in data set [19] and in data set [7] was “Compound NOT metabolized” each time. The “Bacterial Biotransformation” value in data set [20], in data set [8], in data set [9], in [10], in data set [11] and in [12] was “Compound NOT metabolized” throughout. Further, the “Bacterial Biotransformation” value in [13], in data set [14], in data set [16] and in data set [17] was “Compound NOT metabolized” each time.

Turning to `CC(=O)OCC(CCn1cnc2cnc(N)nc21)COC(C)=O` [FAMCICLOVIR], the “Bacterial Biotransformation” value in [1] was “Compound NOT metabolized”; in [2], “Compound metabolized”; in data set [3], “Compound metabolized”; in [4] it was “Compound metabolized”; in data set [5], “Compound metabolized”; in data set [18], “Compound NOT metabolized”. Also, the “Bacterial Biotransformation” value in [6], in [7], in [20], in data set [8], in data set [9] and in data set [10] was “Compound NOT metabolized” throughout. The “Bacterial Biotransformation” value was “Compound NOT metabolized” in data set [11]; “Compound NOT metabolized” in [12]; “Compound NOT metabolized” in data set [13]; “Compound metabolized” in data set [14]; “Compound metabolized” in data set [15]; “Compound NOT metabolized” in [16]. The “Bacterial Biotransformation” value in data set [17] is “Compound NOT metabolized”.

Take `N#Cc1ccc(C(c2ccc(C#N)cc2)n2cncn2)cc1` [LETROZOLE]: the “Bacterial Biotransformation” value in data set [1], in data set [2], in data set [3], in data set [4], in data set [5] and in [18] was “Compound NOT metabolized” in each case. Besides, the “Bacterial Biotransformation” value in data set [6], in data set [7], in data set [20], in [8], in [9] and in [10] was “Compound NOT metabolized” throughout. For the same compound, the “Bacterial Biotransformation” value in data set [11], in data set [12], in data set [13], in data set [14], in [15] and in [16] was “Compound NOT metabolized” in each case. The “Bacterial Biotransformation” value in data set [17] is “Compound NOT metabolized”.

As for `CN1CCN(C2=Nc3ccccc3Oc3ccc(Cl)cc32)CC1.O=C(O)CCC(=O)O` [LOXAPINE SUCCINATE], the “Bacterial Biotransformation” value in data set [1], in data set [2], in [3], in data set [4], in data set [5] and in data set [18] was “Compound NOT metabolized” each time. Further, the “Bacterial Biotransformation” value in [6], in [7], in [20], in [8], in [9] and in data set [10] was “Compound NOT metabolized” throughout. The “Bacterial Biotransformation” value in data set [11], in data set [13], in data set [14], in [15], in data set [16] and in [17] was “Compound NOT metabolized” throughout.

In the case of `COC(=O)Nc1nc2ccc(C(=O)c3ccccc3)cc2[nH]1` [MEBENDAZOLE], the “Bacterial Biotransformation” value in [1] is given as “Compound NOT metabolized”; in [2], “Compound metabolized”; in data set [4], “Compound NOT metabolized”; in [5], “Compound metabolized”; in data set [18], “Compound NOT metabolized”; in data set [19] it was “Compound NOT metabolized”. In addition, the “Bacterial Biotransformation” value in data set [20], in [8], in [9], in data set [11], in [12] and in data set [13] was “Compound NOT metabolized” each time. The “Bacterial Biotransformation” value in data set [14], in [15] and in data set [17] was “Compound NOT metabolized” in each case.

With `Cc1ccnc2c1NC(=O)c1cccnc1N2C1CC1` [NEVIRAPINE], the “Bacterial Biotransformation” value in [1], in data set [2], in data set [3], in data set [4], in data set [5] and in [18] was “Compound NOT metabolized” in each case. Moreover, the “Bacterial Biotransformation” value in data set [6], in data set [7], in data set [20], in data set [8], in data set [9] and in [10] was “Compound NOT metabolized” throughout. Besides, the “Bacterial Biotransformation” value in data set [11], in data set [12], in data set [13], in data set [14], in data set [15] and in [16] was “Compound NOT metabolized” throughout. Besides, in data set [17], the “Bacterial Biotransformation” value is “Compound NOT metabolized”.
